Source: article PMC7401714 (Japanese Journal of Clinical Oncology, 2020)

Tests used:
Phase I = type: in vivo, human; settings: for T lag / Tmax: median, [range]; for Tmax: human, in vivo, T max
[1] = tested on: patients with advanced solid tumors; settings: first-in-man trial outside of Japan; cited from earlier work
advanced solid tumors = test: Phase I; type: in vivo, human; settings: for PFS, single patient: 500 mg once daily
[2] = tested on: Japanese patients with advanced solid tumors; test: Phase I dose escalation; settings: for Patients with TEAE leading to death: primary reason for death was disease progression

CN1CCC(COc2cnc(-c3cccc(Cn4nc(-c5cccc(C#N)c5)ccc4=O)c3)nc2)CC1 [Tepotinib]
4.6 months: PFS, single patient (advanced solid tumors; patient, MET-expressing (IHC 2+) gastric cancer, four prior lines of chemotherapy)
3 n (%): Patients with any TEAE ([2]; 300 mg once daily (n = 3)) | Patients with any grade ≥3 TEAE ([2]; 300 mg once daily (n = 3)) | Patients with any serious TEAE ([2]; 300 mg once daily (n = 3)) | Patients with any related grade ≥3 TEAE ([2]; 500 mg once daily (n = 6)) | Patients with any treatment-related TEAE ([2]; 500 mg once daily (n = 6))
> 700 ng/mL: Caverage at steady state, all patients (Phase I; 500 mg once daily)
2 n (%): Patients with any TEAE ([2]; 215 mg once daily (n = 3)) | Patients with related TEAE of special interest (lipase or amylase elevation of grade ≥3) ([2]; 500 mg once daily (n = 6)) | Tepotinib-related TEAE, Grade 3/4: Lipase increase (grade 4) ([2]; 500 mg once daily (n = 6)) | Tepotinib-related TEAE, any grade: Amylase increase ([2]; 500 mg once daily (n = 6)) | Tepotinib-related TEAE, any grade: Hypoalbuminemia ([2]; 500 mg once daily (n = 6)) | Tepotinib-related TEAE, any grade: Lipase increase ([2]; 500 mg once daily (n = 6))
6 n (%): Patients with any TEAE ([2]; 500 mg once daily (n = 6))
1.38 (90% CI: 1.15–1.38) months: median PFS (advanced solid tumors; all patients (n = 12), 90% CI)
could not be established: maximum tolerated dose (MTD) [1]
No DLTs: dose-limiting toxicities (DLTs) ([2]; 215, 300 and 500 mg once daily, cycle 1)
≤ 1400 mg once daily: dose up to which monotherapy was generally well tolerated [1]
12.9 months: PFS, single patient (advanced solid tumors; patient with urachal cancer (MET status not evaluable))
7 (58.3) n (%): Patients with any grade ≥3 TEAE ([2]; Total, all doses (n = 12))
4.1 h: Tmax (Phase I; 500 mg, Day 14, 500 mg once daily (n = 5))
1.95 [1.95–1.97] h: T lag (Phase I; Day 1, 215 mg once daily (n = 3))
1 (8.3) n (%): Tepotinib-related TEAE, Grade 3/4: Hyponatremia (grade 3) ([2]; Total, all doses (n = 12)) | Tepotinib-related TEAE, any grade: Acneiform dermatitis ([2]; Total, all doses (n = 12)) | Tepotinib-related TEAE, any grade: Decreased appetite ([2]; Total, all doses (n = 12)) | Tepotinib-related TEAE, any grade: Hyponatremia ([2]; Total, all doses (n = 12)) | Tepotinib-related TEAE, any grade: Nausea ([2]; Total, all doses (n = 12)) | Tepotinib-related TEAE, any grade: Serum creatinine increase ([2]; Total, all doses (n = 12)) | Tepotinib-related TEAE, any grade: Stomatitis ([2]; Total, all doses (n = 12)) | Tepotinib-related TEAE, any grade: Vomiting ([2]; Total, all doses (n = 12)) | Patients with TEAE leading to death ([2]; Total, all doses (n = 12))
8 h: Tmax (Phase I; 215 mg, Day 1, 215 mg once daily (n = 3)) | Tmax (Phase I; 215 mg, Day 14, 215 mg once daily (n = 3)) | Tmax (Phase I; 300 mg, Day 1, 300 mg once daily (n = 3))
5 (41.7) n (%): Patients with any treatment-related TEAE ([2]; Total, all doses (n = 12))
16.7%: patients with BOR of stable disease (SD) ≥12 weeks (advanced solid tumors; of 12 patients, both treated with 500 mg once daily)
4 n (%): Patients with any grade ≥3 TEAE ([2]; 500 mg once daily (n = 6))
75%: patients with BOR of disease progression (advanced solid tumors; nine of 12 patients overall)
0 n (%): Patients with TEAE leading to treatment discontinuation ([2]; 215 mg once daily (n = 3)) | Patients with any grade ≥3 TEAE ([2]; 215 mg once daily (n = 3)) | Patients with any related grade ≥3 TEAE ([2]; 215 mg once daily (n = 3)) | Patients with any related serious TEAE ([2]; 215 mg once daily (n = 3)) | Patients with any serious TEAE ([2]; 215 mg once daily (n = 3)) | Patients with related TEAE leading to death ([2]; 215 mg once daily (n = 3)) | Patients with related TEAE of special interest (lipase or amylase elevation of grade ≥3) ([2]; 215 mg once daily (n = 3)) | Tepotinib-related TEAE, Grade 3/4: Hyponatremia (grade 3) ([2]; 215 mg once daily (n = 3)) | Tepotinib-related TEAE, Grade 3/4: Lipase increase (grade 4) ([2]; 215 mg once daily (n = 3)) | Tepotinib-related TEAE, any grade: Acneiform dermatitis ([2]; 215 mg once daily (n = 3)) | Tepotinib-related TEAE, any grade: Amylase increase ([2]; 215 mg once daily (n = 3)) | Tepotinib-related TEAE, any grade: Hypoalbuminemia ([2]; 215 mg once daily (n = 3)) | Tepotinib-related TEAE, any grade: Hyponatremia ([2]; 215 mg once daily (n = 3)) | Tepotinib-related TEAE, any grade: Lipase increase ([2]; 215 mg once daily (n = 3)) | Tepotinib-related TEAE, any grade: Nausea ([2]; 215 mg once daily (n = 3)) | Tepotinib-related TEAE, any grade: Serum creatinine increase ([2]; 215 mg once daily (n = 3)) | Tepotinib-related TEAE, any grade: Stomatitis ([2]; 215 mg once daily (n = 3)) | Tepotinib-related TEAE, any grade: Vomiting ([2]; 215 mg once daily (n = 3)) | Patients with TEAE leading to death ([2]; 215 mg once daily (n = 3)) | Patients with TEAE leading to treatment discontinuation ([2]; 300 mg once daily (n = 3)) | Patients with any related grade ≥3 TEAE ([2]; 300 mg once daily (n = 3)) | Patients with any related serious TEAE ([2]; 300 mg once daily (n = 3)) | Patients with related TEAE leading to death ([2]; 300 mg once daily (n = 3)) | Patients with related TEAE of special interest (lipase or amylase elevation of grade ≥3) ([2]; 300 mg once daily (n = 3)) | Tepotinib-related TEAE, Grade 3/4: Hyponatremia (grade 3) ([2]; 300 mg once daily (n = 3)) | Tepotinib-related TEAE, Grade 3/4: Lipase increase (grade 4) ([2]; 300 mg once daily (n = 3)) | Tepotinib-related TEAE, any grade: Acneiform dermatitis ([2]; 300 mg once daily (n = 3)) | Tepotinib-related TEAE, any grade: Amylase increase ([2]; 300 mg once daily (n = 3)) | Tepotinib-related TEAE, any grade: Decreased appetite ([2]; 300 mg once daily (n = 3)) | Tepotinib-related TEAE, any grade: Dysgeusia ([2]; 300 mg once daily (n = 3)) | Tepotinib-related TEAE, any grade: Hypoalbuminemia ([2]; 300 mg once daily (n = 3)) | Tepotinib-related TEAE, any grade: Hyponatremia ([2]; 300 mg once daily (n = 3)) | Tepotinib-related TEAE, any grade: Lipase increase ([2]; 300 mg once daily (n = 3)) | Tepotinib-related TEAE, any grade: Nausea ([2]; 300 mg once daily (n = 3)) | Tepotinib-related TEAE, any grade: Serum creatinine increase ([2]; 300 mg once daily (n = 3)) | Tepotinib-related TEAE, any grade: Stomatitis ([2]; 300 mg once daily (n = 3)) | Tepotinib-related TEAE, any grade: Vomiting ([2]; 300 mg once daily (n = 3)) | Patients with TEAE leading to death ([2]; 300 mg once daily (n = 3)) | Patients with TEAE leading to treatment discontinuation ([2]; 500 mg once daily (n = 6)) | Patients with any related serious TEAE ([2]; 500 mg once daily (n = 6)) | Patients with related TEAE leading to death ([2]; 500 mg once daily (n = 6)) | Tepotinib-related TEAE, any grade: Decreased appetite ([2]; 500 mg once daily (n = 6)) | Tepotinib-related TEAE, any grade: Fatigue ([2]; 500 mg once daily (n = 6)) | Patients with TEAE leading to treatment discontinuation ([2]; Total, all doses (n = 12)) | Patients with any related serious TEAE ([2]; Total, all doses (n = 12)) | Patients with related TEAE leading to death ([2]; Total, all doses (n = 12))
10 h: Tmax (Phase I; 500 mg, Day 1, 500 mg once daily (n = 6))
remained stable: trough concentrations between cycles 1 and 4 (Phase I; individual patients)
0.99 [0.47–1.98] h: T lag (Phase I; Day 1, 500 mg once daily (n = 6))
11 (91.7) n (%): Patients with any TEAE ([2]; Total, all doses (n = 12))
1 n (%): Patients with any treatment-related TEAE ([2]; 215 mg once daily (n = 3)) | Tepotinib-related TEAE, any grade: Decreased appetite ([2]; 215 mg once daily (n = 3)) | Tepotinib-related TEAE, any grade: Dysgeusia ([2]; 215 mg once daily (n = 3)) | Tepotinib-related TEAE, any grade: Fatigue ([2]; 215 mg once daily (n = 3)) | Patients with any treatment-related TEAE ([2]; 300 mg once daily (n = 3)) | Tepotinib-related TEAE, any grade: Fatigue ([2]; 300 mg once daily (n = 3)) | Patients with any serious TEAE ([2]; 500 mg once daily (n = 6)) | Tepotinib-related TEAE, Grade 3/4: Hyponatremia (grade 3) ([2]; 500 mg once daily (n = 6)) | Tepotinib-related TEAE, any grade: Acneiform dermatitis ([2]; 500 mg once daily (n = 6)) | Tepotinib-related TEAE, any grade: Dysgeusia ([2]; 500 mg once daily (n = 6)) | Tepotinib-related TEAE, any grade: Hyponatremia ([2]; 500 mg once daily (n = 6)) | Tepotinib-related TEAE, any grade: Nausea ([2]; 500 mg once daily (n = 6)) | Tepotinib-related TEAE, any grade: Serum creatinine increase ([2]; 500 mg once daily (n = 6)) | Tepotinib-related TEAE, any grade: Stomatitis ([2]; 500 mg once daily (n = 6)) | Tepotinib-related TEAE, any grade: Vomiting ([2]; 500 mg once daily (n = 6)) | Patients with TEAE leading to death ([2]; 500 mg once daily (n = 6))
4 (33.3) n (%): Patients with any serious TEAE ([2]; Total, all doses (n = 12))
2 (16.7) n (%): Patients with related TEAE of special interest (lipase or amylase elevation of grade ≥3) ([2]; Total, all doses (n = 12)) | Tepotinib-related TEAE, Grade 3/4: Lipase increase (grade 4) ([2]; Total, all doses (n = 12)) | Tepotinib-related TEAE, any grade: Amylase increase ([2]; Total, all doses (n = 12)) | Tepotinib-related TEAE, any grade: Dysgeusia ([2]; Total, all doses (n = 12)) | Tepotinib-related TEAE, any grade: Fatigue ([2]; Total, all doses (n = 12)) | Tepotinib-related TEAE, any grade: Hypoalbuminemia ([2]; Total, all doses (n = 12)) | Tepotinib-related TEAE, any grade: Lipase increase ([2]; Total, all doses (n = 12))
less than dose proportional: dose proportionality of exposure (Cmax, AUC0–t) (Phase I; after the first and multiple oral doses, 215–500 mg)
3 (25.0) n (%): Patients with any related grade ≥3 TEAE ([2]; Total, all doses (n = 12))
41.7%: patients with tepotinib-related TEAEs of any grade ([2]; all doses (n = 12))
9.9 h: Tmax (Phase I; 300 mg, Day 14, 300 mg once daily (n = 3))
0.97 [0.97–2.00] h: T lag (Phase I; Day 1, 300 mg once daily (n = 3))
No clinically relevant abnormalities: vital signs and other safety observations ([2]; all doses)
